Test results reported in US20200000742A1, “COMBINATION” (priority 2016, published 2020).

System: log phase NDM-1 Klebsiella Pneumoniae (NCTC13443)
Assay: Time-kill method over 24 hours (CFU counts)
Type: cell-based
Conditions: FIG. 1
Procedure: As described hereinabove, time-kill methods are another accepted test for ascertaining the presence or absence of synergy, and involve comparing the dynamic effect of a drug combination with each drug alone when assessing the effect on bacterial log or stationary-growth over time.
• 1. Bacterial strain used: NCTC13443 strain of Klebsiella Pneumoniae • 2. Growth of bacteria: Log phase growth of NCTC13443 was carried out according to known methods in the art, e.g. SOP R-005-00 Log Phase Growth of Bacteria. • 3. Compound preparation: dichlorophen and meropenem trihydrate were both obtained from commercial sources (e.g. Sigma-Aldrich® UK). • 4. The overnight culture was diluted with nutrient broth (Oxoid) to 10^7 CFU/ml and 280 μl and 290 μl of the culture was added to each combination well and drug respectively, to make the final concentration of 300 μl. • 5. Incubation of the compounds with the bacterial suspension was carried out for 24 hours. At 0, 2, 4, 7 and 24 hours, CFU counts were performed to measure the kill effects of the drug combination.

## C[C@@H](O)[C@H]1C(=O)N2C(C(=O)O)=C(S[C@@H]3CN[C@H](C(=O)N(C)C)C3)[C@H](C)[C@H]12 [meropenem trihydrate]
Used alone at 512 mg/L
  effect against log phase NDM-1 Klebsiella Pneumoniae (time-kill): little or no effect

## Oc1ccc(Cl)cc1Cc1cc(Cl)ccc1O [dichlorophen, 4-chloro-2-[(5-chloro-2-hydroxyphenyl)methyl] phenol]
Used alone at 64 mg/L
  effect against log phase NDM-1 Klebsiella Pneumoniae (time-kill): little or no effect
